Columns and labels:
α4β1/VCAM-1 = biological target: T1, α4β1/VCAM-1 (Homo sapiens, UniProt P05556+P13612); test: Static cell adhesion assay, Jurkat cells on VCAM-1 (VLA-4 agonist activity); format: cell-based; settings: EC50 relative to THI0349 (average 11 uM) run on the same plate; Jurkat cells, 50% FBS
T1 construct: The Jurkat (VCAM-1 assays) and HSB (ICAM-1 assays) cell lines were obtained from American Type Culture Collection; endogenous in cells; host or cells: Jurkat (ATCC)
Description: (§1) For in vitro cell adhesion assays, compounds were dissolved in DMSO to make a series of stock solutions such that a 1:100 dilution in assay buffer would yield the desired final working concentrations in 1% DMSO (vehicle). Human VCAM-1 and ICAM-1 were purchased from R&D Systems (Minneapolis, MN). The Jurkat (VCAM-1 assays) and HSB (ICAM-1 assays) cell lines were obtained from American Type Culture Collection (Manassas, VA) and were maintained in recommended culture media.
(§2) Assays were performed as previously described in Vanderslice et al., (2010), Biochem Biophys Res Commun 400, 619-624; and Vanderslice et al., (2013) J Biol Chem 288, 19414-19428. VCAM-1 or ICAM-1 ligand in 50 μL of 50 mM Tris-HCl (pH 7.4), 150 mM NaCl, (TBS) was added to wells of a 96-well plate and allowed to coat overnight at 4° C. To maximize the window to evaluate agonist activity, a sub-optimal coating concentration of ligand was used, typically 0.5 and 5 μg/mL in 50 μL TBS for VCAM-1 and ICAM-1 respectively. This ligand concentration corresponded approximately to that which would yield <5% adhesion as determined by dose-response curves. Briefly, 2×10^6 cells were labeled for 30 minutes with calcein-AM (Molecular Probes), washed, resuspended in binding buffer, and added to triplicate wells of ligand-coated plates (2×10^5 cells/well) that had been blocked with 2% BSA. After a 30-minute incubation at 37° C., the plates were washed 3 times with binding buffer, the adherent cells were lysed, and fluorescence was measured on a Tecan Safire^2 plate reader. The binding buffer was PBS with 1 mM MgCl2, 50% FBS for α4β1/VCAM-1 assays and PBS with 2 mM MgCl2, 5 mM EGTA, 50% FBS for αLβ2/ICAM-1 assays. EC50 is defined as the concentration of compound required to achieve 50% of the maximal response.

αLβ2/ICAM-1 = biological target: T2, αLβ2/ICAM-1 (Homo sapiens, UniProt P05107+P20701); test: Static cell adhesion assay, HSB cells on ICAM-1 (LFA-1; LAD); format: cell-based; settings: RFU of compound / RFU of THI0349, both at the same concentration
T2 construct: The Jurkat (VCAM-1 assays) and HSB (ICAM-1 assays) cell lines were obtained from American Type Culture Collection; endogenous in cells; host or cells: HSB (ATCC)
T2 sequence (P20701 26-1170): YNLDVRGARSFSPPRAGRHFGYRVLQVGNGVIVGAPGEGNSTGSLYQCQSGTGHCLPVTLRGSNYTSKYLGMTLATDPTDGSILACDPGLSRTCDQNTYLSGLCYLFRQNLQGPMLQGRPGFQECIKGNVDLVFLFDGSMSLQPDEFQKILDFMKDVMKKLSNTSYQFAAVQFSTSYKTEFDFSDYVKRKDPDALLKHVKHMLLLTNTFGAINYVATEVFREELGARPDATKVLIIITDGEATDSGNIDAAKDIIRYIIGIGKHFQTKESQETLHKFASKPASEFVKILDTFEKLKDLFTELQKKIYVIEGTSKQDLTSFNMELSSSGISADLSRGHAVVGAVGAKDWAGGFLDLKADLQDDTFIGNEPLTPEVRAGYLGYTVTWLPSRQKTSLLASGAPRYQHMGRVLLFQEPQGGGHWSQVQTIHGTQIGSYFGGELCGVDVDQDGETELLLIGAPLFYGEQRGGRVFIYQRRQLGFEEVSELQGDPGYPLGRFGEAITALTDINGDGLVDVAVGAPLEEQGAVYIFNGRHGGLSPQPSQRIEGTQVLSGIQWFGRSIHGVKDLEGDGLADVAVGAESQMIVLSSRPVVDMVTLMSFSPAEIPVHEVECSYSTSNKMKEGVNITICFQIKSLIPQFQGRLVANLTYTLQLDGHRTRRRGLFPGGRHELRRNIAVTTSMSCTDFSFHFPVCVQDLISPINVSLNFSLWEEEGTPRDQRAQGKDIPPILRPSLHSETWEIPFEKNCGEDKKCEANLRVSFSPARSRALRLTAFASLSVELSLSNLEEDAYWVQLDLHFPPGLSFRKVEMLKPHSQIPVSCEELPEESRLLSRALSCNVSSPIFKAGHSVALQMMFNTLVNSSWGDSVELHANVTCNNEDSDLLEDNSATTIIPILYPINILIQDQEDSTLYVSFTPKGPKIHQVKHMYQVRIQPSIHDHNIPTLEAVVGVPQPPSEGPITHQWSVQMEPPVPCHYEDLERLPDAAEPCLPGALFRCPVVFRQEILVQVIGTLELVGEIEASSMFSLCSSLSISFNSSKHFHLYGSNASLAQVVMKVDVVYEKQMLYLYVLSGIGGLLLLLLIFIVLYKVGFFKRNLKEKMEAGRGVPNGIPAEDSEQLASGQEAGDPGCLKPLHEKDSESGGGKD
T2 sequence (P05107 23-769): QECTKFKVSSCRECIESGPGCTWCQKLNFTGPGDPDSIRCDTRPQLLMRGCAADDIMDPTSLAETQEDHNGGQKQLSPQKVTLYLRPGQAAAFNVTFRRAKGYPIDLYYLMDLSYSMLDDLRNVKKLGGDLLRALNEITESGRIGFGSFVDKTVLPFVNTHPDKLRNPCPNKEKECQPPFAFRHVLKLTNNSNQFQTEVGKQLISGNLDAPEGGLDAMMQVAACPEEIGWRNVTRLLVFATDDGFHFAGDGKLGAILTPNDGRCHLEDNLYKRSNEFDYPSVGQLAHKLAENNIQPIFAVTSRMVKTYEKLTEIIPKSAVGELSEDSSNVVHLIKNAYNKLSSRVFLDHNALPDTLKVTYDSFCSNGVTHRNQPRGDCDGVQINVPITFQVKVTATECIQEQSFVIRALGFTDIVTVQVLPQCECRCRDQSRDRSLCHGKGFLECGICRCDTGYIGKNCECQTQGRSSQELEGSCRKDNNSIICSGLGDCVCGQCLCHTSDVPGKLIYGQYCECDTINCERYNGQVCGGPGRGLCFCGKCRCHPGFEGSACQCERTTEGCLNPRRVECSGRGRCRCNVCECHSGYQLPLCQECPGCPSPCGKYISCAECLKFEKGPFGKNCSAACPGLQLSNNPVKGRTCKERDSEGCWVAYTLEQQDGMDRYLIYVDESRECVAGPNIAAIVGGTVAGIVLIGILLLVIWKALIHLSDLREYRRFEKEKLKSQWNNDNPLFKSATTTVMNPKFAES
Description: as §1, §2
In relation to LAD (Leukocyte Adhesion Deficiency), LFA-1 ratios are determined by dividing the relative fluorescence units (RFU) of each compound at a concentration of 3 μM over that of the reference standard of THI0349, also at 3 μM, (RFU Compound/RFU of THI0349). Log Ps were calculated by either Chemdraw® version 12 (CambridgeSoft) or ACD/Chemsketch® (ACD/Labs).

T1 sequence (P13612 34-1032): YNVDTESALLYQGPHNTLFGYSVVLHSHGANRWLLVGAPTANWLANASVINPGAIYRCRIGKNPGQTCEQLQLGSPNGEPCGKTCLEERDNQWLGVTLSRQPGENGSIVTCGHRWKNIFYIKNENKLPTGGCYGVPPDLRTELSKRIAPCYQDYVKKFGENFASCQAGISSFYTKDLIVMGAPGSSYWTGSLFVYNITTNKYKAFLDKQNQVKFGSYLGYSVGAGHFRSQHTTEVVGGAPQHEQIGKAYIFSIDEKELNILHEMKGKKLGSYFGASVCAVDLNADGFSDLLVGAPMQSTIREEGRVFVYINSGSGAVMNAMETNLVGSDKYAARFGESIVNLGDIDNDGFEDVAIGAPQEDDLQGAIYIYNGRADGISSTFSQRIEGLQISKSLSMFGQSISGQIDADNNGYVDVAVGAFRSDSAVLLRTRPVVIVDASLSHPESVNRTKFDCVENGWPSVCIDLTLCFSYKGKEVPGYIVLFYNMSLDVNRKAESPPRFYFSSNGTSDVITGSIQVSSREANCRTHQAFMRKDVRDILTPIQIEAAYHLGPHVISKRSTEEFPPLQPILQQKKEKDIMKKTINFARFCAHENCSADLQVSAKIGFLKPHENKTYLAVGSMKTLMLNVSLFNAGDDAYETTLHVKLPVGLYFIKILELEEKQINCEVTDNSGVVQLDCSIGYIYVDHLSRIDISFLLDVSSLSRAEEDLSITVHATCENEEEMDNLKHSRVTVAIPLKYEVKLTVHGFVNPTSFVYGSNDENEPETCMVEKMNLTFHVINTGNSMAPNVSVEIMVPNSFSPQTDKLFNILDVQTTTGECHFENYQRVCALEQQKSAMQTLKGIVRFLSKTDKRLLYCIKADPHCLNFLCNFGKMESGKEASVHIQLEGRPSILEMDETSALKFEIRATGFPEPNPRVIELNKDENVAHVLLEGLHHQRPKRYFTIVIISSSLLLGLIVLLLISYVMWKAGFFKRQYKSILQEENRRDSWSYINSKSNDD
T1 sequence (P05556 21-798): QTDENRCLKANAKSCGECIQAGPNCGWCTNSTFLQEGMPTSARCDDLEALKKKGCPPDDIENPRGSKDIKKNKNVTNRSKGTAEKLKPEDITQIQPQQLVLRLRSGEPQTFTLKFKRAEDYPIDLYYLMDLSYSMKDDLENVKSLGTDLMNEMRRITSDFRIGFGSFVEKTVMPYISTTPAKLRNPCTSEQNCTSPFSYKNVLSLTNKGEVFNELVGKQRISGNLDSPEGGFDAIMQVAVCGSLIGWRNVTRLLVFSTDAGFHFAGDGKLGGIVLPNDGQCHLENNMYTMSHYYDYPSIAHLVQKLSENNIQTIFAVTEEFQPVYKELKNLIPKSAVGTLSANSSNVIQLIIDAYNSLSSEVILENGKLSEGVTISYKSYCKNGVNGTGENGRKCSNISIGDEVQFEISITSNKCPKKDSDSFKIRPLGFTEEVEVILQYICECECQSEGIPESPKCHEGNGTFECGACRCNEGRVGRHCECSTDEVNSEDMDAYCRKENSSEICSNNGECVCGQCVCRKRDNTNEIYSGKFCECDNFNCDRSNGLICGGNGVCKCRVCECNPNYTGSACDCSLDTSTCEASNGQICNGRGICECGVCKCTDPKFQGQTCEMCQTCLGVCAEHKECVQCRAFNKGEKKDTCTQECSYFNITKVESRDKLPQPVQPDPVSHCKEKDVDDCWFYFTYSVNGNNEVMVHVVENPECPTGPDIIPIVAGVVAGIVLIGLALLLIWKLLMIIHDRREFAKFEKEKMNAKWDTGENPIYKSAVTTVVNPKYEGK

| SMILES | LAD Raw Fluorescence Units against LFA-1; Dose 3 µM; Ratio of raw counts Compound/THI0349 (αLβ2/ICAM-1) | Group against VCAM (α4β1/VCAM-1) |
| --- | --- | --- |
| COc1cccc(COCc2cccc(N(Cc3cccc(OC)c3)Cc3cccc(OC)c3)c2)c1 [Compound 90, N,N-bis(3-methoxybenzyl)-3-(((3-methoxybenzyl)oxy)methyl)aniline] | 0.09 | III (Group III more than five times the EC50 of THI0349) |
| CCOC(=O)c1coc(N(Cc2ccc(OC)cc2)Cc2ccc(OC)cc2)n1 [Compound 15, ethyl 2-(bis(4-methoxybenzyl)amino)oxazole-4-carboxylate] | 0.52 | III (Group III more than five times the EC50 of THI0349) |
| COc1cccc(CN(Cc2cccc(OC)c2)c2nc(CN3CCCCC3)cs2)c1 [Compound 68, N,N-bis(3-methoxybenzyl)-4-(piperidin-1-ylmethyl)thiazol-2-amine] | 1.6 | II (Group II is more than twice that of THI0349 but less than five times THI0349's EC50) |
| CCOC(=O)c1csc(N(Cc2cccc(OC)c2)Cc2ccc3ncccc3c2)n1 [Compound 114, ethyl 2-((3-methoxybenzyl)(quinolin-6-ylmethyl)amino)thiazole-4-carboxylate] | 0.39 | II (Group II is more than twice that of THI0349 but less than five times THI0349's EC50) |
| COc1ccc(CN(Cc2ccc(OC)cc2)c2nc(COCCOCCO)cs2)cc1 [Compound 34, 2-(2-((2-(bis(4-methoxybenzyl)amino)thiazol-4-yl)methoxy)ethoxy)ethanol] | 0.34 | III (Group III more than five times the EC50 of THI0349) |
| CCOC(=O)c1csc(N(Cc2cccc(OC)c2)CC(C)C)n1 [Compound 121, ethyl 2-(isobutyl(3-methoxybenzyl)amino)thiazole-4-carboxylate] | 0.18 | III (Group III more than five times the EC50 of THI0349) |
| COc1ccc(CN(Cc2ccc(OC)cc2)c2nc(CO)co2)cc1 [Compound 26, (2-(bis(4-methoxybenzyl)amino)oxazol-4-yl)methanol] | 0.79 | I (Group I maintains at least the same potency or better up to more than twice that of the EC50 of THI0349 ran on the same plate) |
| CCOC(=O)c1coc(N(Cc2cccc(OC)c2)Cc2cccc(OC)c2)n1 [Compound 14, ethyl 2-(bis(3-methoxybenzyl)amino)oxazole-4-carboxylate] | 1.0 | I (Group I maintains at least the same potency or better up to more than twice that of the EC50 of THI0349 ran on the same plate) |
| COc1cccc(CN(Cc2cccc(OC)c2)c2nc(CCN3CCOCC3)cs2)c1 [Compound 84, N,N-bis(3-methoxybenzyl)-4-(2-morpholinoethyl)thiazol-2-amine] | 0.14 | I (Group I maintains at least the same potency or better up to more than twice that of the EC50 of THI0349 ran on the same plate) |
| COc1cccc(CN(Cc2cccc(OC)c2)c2nc(COCCOCCOCc3ccccc3Cl)cs2)c1 [Compound 56, 4-((2-(2-((2-chlorobenzyl)oxy)ethoxy)ethoxy)methyl)-N,N-bis(3-methoxybenzyl)thiazol-2-amine] | 1.2 | III (Group III more than five times the EC50 of THI0349) |
| CCOC(=O)c1csc(N(C)Cc2cccc(OC)c2)n1 [Compound 106, ethyl 2-((3-methoxybenzyl)(methyl)amino)thiazole-4-carboxylate] | 0.05 | III (Group III more than five times the EC50 of THI0349) |
| COc1cccc(COCc2csc(N(Cc3ccc(-n4cccn4)cc3)Cc3cccc(OC)c3)n2)c1 [Compound 104, N-(4-(1H-pyrazol-1-yl)benzyl)-N-(3-methoxybenzyl)-4-((3-methoxybenzyloxy)methyl)thiazol-2-amine] | 0.28 | I (Group I maintains at least the same potency or better up to more than twice that of the EC50 of THI0349 ran on the same plate) |
| COc1ccc(CCCOCc2coc(N(Cc3cccs3)Cc3cccs3)n2)cc1 [Compound 24, 4-((3-(4-methoxyphenyl)propoxy)methyl)-N,N-bis(thiophen-2-ylmethyl)oxazol-2-amine] | 0.85 | II (Group II is more than twice that of THI0349 but less than five times THI0349's EC50) |
| CCOC(=O)c1coc(N(Cc2cccs2)Cc2cccs2)n1 [Compound 13, ethyl 2-(bis(thiophen-2-ylmethyl)amino)oxazole-4-carboxylate] | 0.1 | I (Group I maintains at least the same potency or better up to more than twice that of the EC50 of THI0349 ran on the same plate) |
| CCOC(=O)c1csc(N(Cc2cccc(OC)c2)Cc2cccc(-n3cccn3)c2)n1 [Compound 119, ethyl 2-((3-(1H-pyrazol-1-yl)benzyl)(3-methoxybenzyl)amino)thiazole-4-carboxylate] | 0.2 | II (Group II is more than twice that of THI0349 but less than five times THI0349's EC50) |

More lines, main results first:

| LAD Raw Fluorescence Units against LFA-1; Dose 3 µM; Ratio of raw counts Compound/THI0349 (αLβ2/ICAM-1) | SMILES | Group against VCAM (α4β1/VCAM-1) |
| --- | --- | --- |
| 0.23 | COc1ccc(CCCOCc2csc(N(Cc3cccc(OC)c3)Cc3cccc(OC)c3)n2)cc1 [Compound 39, N,N-bis(3-methoxybenzyl)-4-((3-(4-methoxyphenyl)propoxy)methyl)thiazol-2-amine] | III (Group III more than five times the EC50 of THI0349) |
| 0.7 | COc1cccc(CN(Cc2cccc(OC)c2)c2nc(COCCOc3cccc(OC)c3)cs2)c1 [Compound 47, N,N-bis(3-methoxybenzyl)-4-((2-(3-methoxyphenoxy)ethoxy)methyl)thiazol-2-amine] | I (Group I maintains at least the same potency or better up to more than twice that of the EC50 of THI0349 ran on the same plate) |
| 1.2 | COc1cccc(CN(Cc2cccc(OC)c2)c2nc(COCCOc3cccc(C#N)c3)cs2)c1 [Compound 50, 3-(2-((2-(bis(3-methoxybenzyl)amino)thiazol-4-yl)methoxy)ethoxy)benzonitrile] | III (Group III more than five times the EC50 of THI0349) |
| 1.1 | COc1cccc(COCCOCCOCc2csc(N(Cc3cccc(OC)c3)Cc3cccc(OC)c3)n2)c1 [Compound 55, N,N-bis(3-methoxybenzyl)-4-((2-(2-((3-methoxybenzyl)oxy)ethoxy)ethoxy)methyl)thiazol-2-amine] | I (Group I maintains at least the same potency or better up to more than twice that of the EC50 of THI0349 ran on the same plate) |
| 0.80 | COc1cccc(CN(Cc2cccc(OC)c2)c2nc(COCCOCCOc3ccccc3)cs2)c1 [Compound 43, N,N-bis(3-methoxybenzyl)-4-((2-(2-phenoxyethoxy)ethoxy)methyl)thiazol-2-amine] | I (Group I maintains at least the same potency or better up to more than twice that of the EC50 of THI0349 ran on the same plate) |
| 0.18 | COc1cccc(CN(Cc2cccc(OC)c2)c2nc(COCCN3CCc4ccccc43)cs2)c1 [Compound 88, 4-((2-(indolin-1-yl)ethoxy)methyl)-N,N-bis(3-methoxybenzyl)thiazol-2-amine] | II (Group II is more than twice that of THI0349 but less than five times THI0349's EC50) |

Reference: patent US20240360113A1, “AMINOARYL-INTEGRIN AGONISTS COMPOUNDS” (Texas Heart Institute, priority 2021, published 2024)
